Active and inactive are the calls of the source. The rule behind the calls is not given here.
Tested on: CCRIS mutagenicity, Ames/micronucleus/aberration tests
Experiment: CCRIS mutagenicity studies
[1] = Test System: AMES SALMONELLA TYPHIMURIUM, Strain/Indicator: TA98, Metabolic Activation: NONE, Method: PREINCUBATION
[2] = Test System: AMES SALMONELLA TYPHIMURIUM, Strain/Indicator: TA98, Metabolic Activation: RAT, LIVER, S-9, PHENOBARBITAL AND 5,6-BENZOFLAVONE, Method: PREINCUBATION
[3] = Test System: AMES SALMONELLA TYPHIMURIUM, Strain/Indicator: TA100, Metabolic Activation: NONE, Method: PREINCUBATION
[4] = Test System: AMES SALMONELLA TYPHIMURIUM, Strain/Indicator: TA100, Metabolic Activation: RAT, LIVER, S-9, PHENOBARBITAL AND 5,6-BENZOFLAVONE, Method: PREINCUBATION
[5] = Test System: AMES SALMONELLA TYPHIMURIUM, Strain/Indicator: TA1535, Metabolic Activation: NONE, Method: PREINCUBATION
[6] = Test System: AMES SALMONELLA TYPHIMURIUM, Strain/Indicator: TA1535, Metabolic Activation: RAT, LIVER, S-9, PHENOBARBITAL AND 5,6-BENZOFLAVONE, Method: PREINCUBATION
[7] = Test System: AMES SALMONELLA TYPHIMURIUM, Strain/Indicator: TA1537, Metabolic Activation: NONE, Method: PREINCUBATION
[8] = Test System: AMES SALMONELLA TYPHIMURIUM, Strain/Indicator: TA1537, Metabolic Activation: RAT, LIVER, S-9, PHENOBARBITAL AND 5,6-BENZOFLAVONE, Method: PREINCUBATION
[9] = Test System: AMES SALMONELLA TYPHIMURIUM, Strain/Indicator: TA1538, Metabolic Activation: RAT, LIVER, S-9, PHENOBARBITAL AND 5,6-BENZOFLAVONE, Method: PREINCUBATION
[10] = Test System: AMES SALMONELLA TYPHIMURIUM, Strain/Indicator: TA98, Metabolic Activation: NONE, Method: STANDARD PLATE
[11] = Test System: AMES SALMONELLA TYPHIMURIUM, Strain/Indicator: TA100, Metabolic Activation: NONE, Method: STANDARD PLATE
[12] = Test System: AMES SALMONELLA TYPHIMURIUM, Strain/Indicator: TA98, Metabolic Activation: RAT, LIVER, S-9, AROCLOR 1254, Method: STANDARD PLATE
[13] = Test System: AMES SALMONELLA TYPHIMURIUM, Strain/Indicator: TA100, Metabolic Activation: RAT, LIVER, S-9, AROCLOR 1254, Method: STANDARD PLATE

Measured: mutagenic call

NC1=CC(=O)C(=O)c2ccccc21
active: Test System: AMES SALMONELLA TYPHIMURIUM, Strain/Indicator: TA97, Metabolic Activation: NONE, Method: PREINCUBATION active; positive | Test System: AMES SALMONELLA TYPHIMURIUM, Strain/Indicator: TA97, Metabolic Activation: RAT, LIVER, S-9, PHENOBARBITAL AND 5,6-BENZOFLAVONE, Method: PREINCUBATION active; positive | [2] active; positive | [3] active; positive | [4] active; positive | Test System: AMES SALMONELLA TYPHIMURIUM, Strain/Indicator: TA104, Metabolic Activation: NONE, Method: PREINCUBATION active; positive | Test System: AMES SALMONELLA TYPHIMURIUM, Strain/Indicator: TA104, Metabolic Activation: RAT, LIVER, S-9, PHENOBARBITAL AND 5,6-BENZOFLAVONE, Method: PREINCUBATION active; positive | [8] active; positive | Test System: AMES SALMONELLA TYPHIMURIUM, Strain/Indicator: TA2637, Metabolic Activation: NONE, Method: PREINCUBATION active; positive | Test System: AMES SALMONELLA TYPHIMURIUM, Strain/Indicator: TA2637, Metabolic Activation: RAT, LIVER, S-9, PHENOBARBITAL AND 5,6-BENZOFLAVONE, Method: PREINCUBATION active; positive
inactive: [1] inactive; negative | Test System: AMES SALMONELLA TYPHIMURIUM, Strain/Indicator: TA102, Metabolic Activation: NONE, Method: PREINCUBATION inactive; negative | Test System: AMES SALMONELLA TYPHIMURIUM, Strain/Indicator: TA102, Metabolic Activation: RAT, LIVER, S-9, PHENOBARBITAL AND 5,6-BENZOFLAVONE, Method: PREINCUBATION inactive; negative | [5] inactive; negative | [6] inactive; negative | [7] inactive; negative | Test System: AMES SALMONELLA TYPHIMURIUM, Strain/Indicator: TA1538, Metabolic Activation: NONE, Method: PREINCUBATION inactive; negative | [9] inactive; negative

ONc1ccc(Br)cc1
inactive: Test System: E. COLI, Strain/Indicator: WP2 UVRA, Metabolic Activation: NONE, Method: FLUCTUATION TEST inactive; negative

NC(=O)c1ccccc1C(N)=O
inactive: Test System: AMES SALMONELLA TYPHIMURIUM, Strain/Indicator: TA98, Metabolic Activation: HAMSTER, LIVER, S-9, AROCLOR 1254 (10%), Method: PREINCUBATION inactive; negative | [1] inactive; negative | Test System: AMES SALMONELLA TYPHIMURIUM, Strain/Indicator: TA98, Metabolic Activation: RAT, LIVER, S-9, AROCLOR 1254 (10%), Method: PREINCUBATION inactive; negative | Test System: AMES SALMONELLA TYPHIMURIUM, Strain/Indicator: TA100, Metabolic Activation: HAMSTER, LIVER, S-9, AROCLOR 1254 (10%), Method: PREINCUBATION inactive; negative | [3] inactive; negative | Test System: AMES SALMONELLA TYPHIMURIUM, Strain/Indicator: TA100, Metabolic Activation: RAT, LIVER, S-9, AROCLOR 1254 (10%), Method: PREINCUBATION inactive; negative | Test System: AMES SALMONELLA TYPHIMURIUM, Strain/Indicator: TA1535, Metabolic Activation: HAMSTER, LIVER, S-9, AROCLOR 1254 (10%), Method: PREINCUBATION inactive; negative | [5] inactive; negative | Test System: AMES SALMONELLA TYPHIMURIUM, Strain/Indicator: TA1535, Metabolic Activation: RAT, LIVER, S-9, AROCLOR 1254 (10%), Method: PREINCUBATION inactive; negative | Test System: AMES SALMONELLA TYPHIMURIUM, Strain/Indicator: TA1537, Metabolic Activation: HAMSTER, LIVER, S-9, AROCLOR 1254 (10%), Method: PREINCUBATION inactive; negative | [7] inactive; negative | Test System: AMES SALMONELLA TYPHIMURIUM, Strain/Indicator: TA1537, Metabolic Activation: RAT, LIVER, S-9, AROCLOR 1254 (10%), Method: PREINCUBATION inactive; negative

CCCCC/C=C\C/C=C\C/C=C\C/C=C\CCCC(=O)O
active: Test System: CHINESE HAMSTER V-79, Strain/Indicator: V-79/6-THIOGUANINE, Metabolic Activation: NONE active; positive

c1ccc2c(c1)-c1nc3ccccc3c3c1c-2nc1ccccc13
inactive: [10] inactive; negative | Test System: AMES SALMONELLA TYPHIMURIUM, Strain/Indicator: TA98, Metabolic Activation: RAT LIVER S-9, AROCLOR 1254, Method: STANDARD PLATE inactive; negative | Test System: ESCHERICHIA COLI, Strain/Indicator: WP2 UVR A, Metabolic Activation: NONE, Method: STANDARD PLATE inactive; negative | Test System: ESCHERICHIA COLI, Strain/Indicator: WP2 UVR A, Metabolic Activation: RAT LIVER S-9, AROCLOR 1254, Method: STANDARD PLATE inactive; negative

CCN(CC)[N+](=O)[O-]
inactive: Test System: E. COLI, Strain/Indicator: WP2 (HCR-), Metabolic Activation: RAT, LIVER, MICROSOMES, PHENOBARBITAL inactive; negative

c1cc(OCC2CO2)c2sncc2c1 (centres undefined)
active: [11] active; positive

Cc1cc2c3c(ccc2c2ccccc12)[C@@H](O)[C@H](O)[C@@H]1O[C@H]31
inactive: [3] inactive; negative

C=C1/C(=C\C=C2/CCC[C@]3(C)[C@@H]([C@H](C)CC[C@@H](O)C(C)C)CC[C@@H]23)C[C@@H](O)C[C@@H]1O
inactive: [10] inactive; negative | [2] inactive; negative | [11] inactive; negative | [4] inactive; negative | Test System: AMES SALMONELLA TYPHIMURIUM, Strain/Indicator: TA1535, Metabolic Activation: NONE, Method: STANDARD PLATE inactive; negative | [6] inactive; negative | Test System: AMES SALMONELLA TYPHIMURIUM, Strain/Indicator: TA1537, Metabolic Activation: NONE, Method: STANDARD PLATE inactive; negative | [8] inactive; negative | Test System: AMES SALMONELLA TYPHIMURIUM, Strain/Indicator: TA1538, Metabolic Activation: NONE, Method: STANDARD PLATE inactive; negative | [9] inactive; negative | Test System: E. COLI, Strain/Indicator: WP2 UVRA, Metabolic Activation: NONE, Method: STANDARD PLATE inactive; negative | Test System: E. COLI, Strain/Indicator: WP2 UVRA, Metabolic Activation: RAT, LIVER, S-9, PHENOBARBITAL AND 5,6-BENZOFLAVONE, Method: PREINCUBATION inactive; negative

COc1cc2c(cc1OC)CN(N=O)CC2
active: Test System: AMES SALMONELLA TYPHIMURIUM, Strain/Indicator: TA98, Metabolic Activation: RAT, LIVER, S-9, AROCLOR 1254, Method: PREINCUBATION active; positive | Test System: AMES SALMONELLA TYPHIMURIUM, Strain/Indicator: TA100, Metabolic Activation: RAT, LIVER, S-9, AROCLOR 1254, Method: PREINCUBATION active; positive | Test System: AMES SALMONELLA TYPHIMURIUM, Strain/Indicator: TA1535, Metabolic Activation: RAT, LIVER, S-9, AROCLOR 1254, Method: PREINCUBATION active; positive | Test System: AMES SALMONELLA TYPHIMURIUM, Strain/Indicator: TA1537, Metabolic Activation: RAT, LIVER, S-9, AROCLOR 1254, Method: PREINCUBATION active; positive | Test System: AMES SALMONELLA TYPHIMURIUM, Strain/Indicator: TA1538, Metabolic Activation: RAT, LIVER, S-9, AROCLOR 1254, Method: PREINCUBATION active; positive

COc1ccc(N=O)cc1
active: [10] active; positive | [12] active; positive | [11] active; positive | [13] active; positive

NC(Cc1ccc(O)cc1)C(=O)O (centres undefined)
inactive: [10] inactive; negative | [12] inactive; negative | [11] inactive; negative | [13] inactive; negative

From PubChem BioAssay AID1259407 (Chemical Carcinogenesis Research Information System (CCRIS), 2018)
